{
  "source": "patent US20060040940A1",
  "about": "“Imidazopyridines pyrimidines and triazines for enhancing cognition as gaba-a-alphas 5 receoptor subtype ligands” (priority 2001, published 2006)",
  "origin": "cited, not measured here",
  "key": {"benzodiazepine receptor [1]": {"system": "benzodiazepine receptor", "details": "reported in Psychobiology, 21:101-108"}, "benzodiazepine receptor [2]": {"system": "benzodiazepine receptor", "details": "background statement"}},
  "data": [
    {"smiles": "COC(=O)c1cc2c(cn1)[nH]c1ccccc12", "note": "[β-CCM]", "values": [
      {"measurement": "spatial learning in the Morris watermaze", "setting": "benzodiazepine receptor [1]", "result": "enhanced spatial learning"},
      {"measurement": "proconvulsant effect", "setting": "benzodiazepine receptor [2]", "result": "proconvulsant"}
    ]}
  ]
}
